ChEMBL document CHEMBL1122106, “Quantitative structure-activity relationship by distance geometry: quinazolines as dihydrofolate reductase inhibitors” (J Med Chem, 1982)

Test system: Dihydrofolate reductase (Enterococcus faecium)

SMILES | -Delta G [kcal/mol]
Nc1nc(O)c2c(Sc3ccc4ccccc4c3)cccc2n1 | 7.4
Nc1nc(N)c2cc(CNc3ccc(C(=O)O)cc3)ccc2n1 | 13
Nc1nc(O)c2cc(Sc3ccc4ccccc4c3)ccc2n1 | 10.2
Nc1nc(O)c2c(S(=O)(=O)c3ccc4ccccc4c3)cccc2n1 | 9
Nc1nc(O)c2cc(NCc3ccc(C(=O)O)cc3)ccc2n1 | 7.2
Nc1nc(N)c2c([S+]([O-])c3ccc4ccccc4c3)cccc2n1 (stereo not drawn) | 6.9
Nc1nc(N)c2c(CSc3ccc(Cl)cc3)cccc2n1 | 10.9
Cc1c(CNc2ccc(C(=O)O)cc2)ccc2nc(N)nc(N)c12 | 11.8
CCCCOC(=O)c1ccc(NCc2ccc3nc(N)nc(N)c3c2Cl)cc1 | 11.4
Nc1nc(N)c2c([S+]([O-])c3ccc(Cl)c(Cl)c3)cccc2n1 (stereo not drawn) | 7.3
CCOC(=O)c1ccc(CNc2ccc3nc(N)nc(N)c3c2C)cc1 | 13.1
Nc1nc(N)c2c(Sc3ccc4ccccc4c3)cccc2n1 | 10.9
CCOC(=O)c1ccc(CNc2ccc3nc(N)nc(O)c3c2)cc1 | 8.6
CCOC(=O)c1ccc(NCc2ccc3nc(N)nc(N)c3c2Cl)cc1 | 12.8
Nc1nc(N)c2c(Sc3ccc(Cl)c(Cl)c3)cccc2n1 | 9.9
CCOC(=O)c1ccc(CNc2ccc3nc(N)nc(N)c3c2)cc1 | 11
Nc1nc(S)nc2ccc(Sc3ccc4ccccc4c3)cc12 | 7.4
Nc1nc(N)c2c(Cl)c(CNc3ccc(C(=O)O)cc3)ccc2n1 | 12.3
Nc1nc(N)c2cc(Sc3ccc(Cl)c(Cl)c3)ccc2n1 | 12.2
Nc1nc(S)c2cc(Sc3ccc4ccccc4c3)ccc2n1 | 9.3
Nc1nc(O)c2cc(CNc3ccc(C(=O)O)cc3)ccc2n1 | 8.8
Cc1c(CNc2ccc(C(=O)NC(CC(=O)O)C(=O)O)cc2)ccc2nc(N)nc(N)c12 (stereo not drawn) | 12.7
CCCCOC(=O)c1ccc(NCc2ccc3nc(N)nc(N)c3c2C)cc1 | 12.1
Nc1nc(N)c2cc([S+]([O-])c3ccc4ccccc4c3)ccc2n1 (stereo not drawn) | 12.8
O=c1[nH]c(=O)c2cc(Sc3ccc4ccccc4c3)ccc2[nH]1 | 6.9
Nc1nc(N)c2c(CCc3ccc4ccccc4c3)cccc2n1 | 11.9
CCOC(=O)c1ccc(NCc2ccc3nc(N)nc(N)c3c2)cc1 | 11.4

SMILES | -Delta G [kcal/mol]
Oc1nc(S)nc2ccc(Sc3ccc4ccccc4c3)cc12 | 6.2
CCOC(=O)c1ccc(CNc2ccc3nc(N)nc(N)c3c2Cl)cc1 | 12.2
Nc1nc(O)c2cc(Sc3ccc(Cl)c(Cl)c3)ccc2n1 | 9.1
CCCCOC(=O)c1ccc(NCc2ccc3nc(N)nc(N)c3c2)cc1 | 11.2
Nc1ncnc2ccc([S+]([O-])c3ccc4ccccc4c3)cc12 (stereo not drawn) | 7.2
Nc1nc(N)c2c(/C=C/c3ccc4ccccc4c3)cccc2n1 | 10.7
Nc1nc(N)c2c(S(=O)(=O)c3ccc(Cl)c(Cl)c3)cccc2n1 | 9
Nc1nc(O)c2cc(S(=O)(=O)c3ccc(Cl)c(Cl)c3)ccc2n1 | 8.2
Nc1nc(N)c2cc(S(=O)(=O)c3ccc4ccccc4c3)ccc2n1 | 12.4
CCOC(=O)c1ccc(CNc2ccc3nc(N)nc(O)c3c2C)cc1 | 7.1
Nc1ncnc2ccc(S(=O)(=O)c3ccc4ccccc4c3)cc12 | 5.8
Nc1nc(O)nc2ccc(Sc3ccc4ccccc4c3)cc12 | 6.9
CCOC(=O)c1ccc(CNc2ccc3nc(N)nc(O)c3c2Cl)cc1 | 9.3
CCOC(=O)c1ccc(NCc2ccc3nc(N)nc(O)c3c2)cc1 | 10.6
Nc1nc(O)c2cc(S(=O)(=O)c3ccc4ccccc4c3)ccc2n1 | 9.6
Cc1c(NCc2ccc(C(=O)O)cc2)ccc2nc(N)nc(O)c12 | 6.5
Nc1nc(O)c2cc([S+]([O-])c3ccc4ccccc4c3)ccc2n1 (stereo not drawn) | 8.2
Nc1nc(S)c2cc(S(=O)(=O)c3ccc4ccccc4c3)ccc2n1 | 8
Nc1ncnc2ccc(Sc3ccc4ccccc4c3)cc12 | 6.5
CCOC(=O)c1ccc(NCc2ccc3nc(N)nc(N)c3c2C)cc1 | 12.3
O=c1[nH]c(=S)c2cc(Sc3ccc4ccccc4c3)ccc2[nH]1 | 6.8
Sc1nc(S)c2cc(Sc3ccc4ccccc4c3)ccc2n1 | 6
Nc1nc(N)c2cc(Sc3cccc(C(F)(F)F)c3)ccc2n1 | 13.4
Nc1nc(N)c2c(/C=C\c3ccc4ccccc4c3)cccc2n1 | 11.1
Nc1nc(N)c2c(S(=O)(=O)c3ccc4ccccc4c3)cccc2n1 | 6.5
Nc1nc(N)c2cc(S(=O)(=O)c3ccc(Cl)c(Cl)c3)ccc2n1 | 13.4
